{"source": "patent US9598384B2", "about": "“3-(2-amino-ethyl)-alkylidene)-thiazolidine-2,4-dione and 1-(2-amino-ethyl)-alkylidene-1,3-dihydro-indol-2-one derivatives as selective sphingosine kinase 2 inhibitors” (VIRGINIA COMMONWEALTH UNIVERSITY, priority 2012, dated 2017)", "key": {"U937 xenograft [1]": {"tested_on": "U937 xenograft", "experiment": "U937 xenografts in nude mice, oral administration", "procedure": "BALB/c-nu mice (n=7) with palpable U937 xenograft were treated daily with vehicle, tamibarotene (20 mg/kg), or K145 (50 mg/kg) for 15 days by oral gavage. After treatment, animals were sacrificed and tumors were removed, weighed and images were taken. […] Data are expressed as mean value±SEM. *P<0.05 compared to control group.\nIn this experiment, K145 was given at 50 mg/kg by oral gavage daily for 15 days and tumor volume and animal weights were measured every other day. Again, tamibarotene (20 mg/kg) was used as positive control."}, "ceramide": {"tested_on": "ceramide", "experiment": "Ceramide species in HEK293 cells by LC-ESI-MS/MS", "assay_type": "cell-based", "settings": "10 μM, 2 h", "protocol": "(§1) FIG. 16A-E. K145 accumulates and suppresses the S1P level. A and B) U937 cells were treated with K145 at the indicated concentrations for 3 h and the levels of K145 and S1P were measured by ESI-MS/MS. C) HEK293 cells were treated with K145 (10 μM) for 2 h. Lipids were extracted and different chain length species of ceramide were determined by LC-ESI-MS/MS. Numbers indicate chain length followed by the number of double bonds in the fatty acid. Data are averages of triplicate determinations and are expressed as pmol lipid/10^6 cells. D) U937 cells were treated with or without K145 (10 μM) for 3 h and levels of C1P species were determined by ESI-MS/MS. E) U937 cells were treated with FTY720 (1 μM) in the absence or presence of indicated K145 for 3 h, then FTY720-P was measured by ESI-MS/MS. *P<0.05 compared to control."}, "U937 cells": {"tested_on": "U937 cells", "experiment": "Cell apoptosis assay, annexin V/PI flow cytometry", "assay_type": "cell-based, human", "protocol": "Apoptosis was measured by flow cytometry using annexin V/propidium iodide (PI) as staining reagent. […] The cells were then incubated with annexin V-fluorescein isothiocyanate (FITC) (BD PharMingen, San Diego, Calif.) and 5 μg/mL propidium iodide (PI), and incubated for 15 minutes at room temperature in the dark per the manufacturer's instructions. The samples were analyzed by flow cytometry using a Becton Dickinson FACScan (Becton Dickinson, San Jose, Calif.) within 1 hr to determine the percentage of cells displaying annexin V staining (early apoptosis) or both annexin V and PI staining (late apoptosis)."}, "U937 xenograft [2]": {"tested_on": "U937 xenograft", "experiment": "U937 xenografts in nude mice, i.p. administration", "assay_type": "in vivo, BALB/c-nu mice", "settings": "15 mg/kg daily i.p.", "protocol": "D) Body weights of mice throughout treatment. Data are expressed as mean value±SD. *P<0.05 compared to control group.\nFemale nude mice (BALB/c-nu, n=7) were inoculated with 3×10^7 U937 cells subcutaneously in the right flank. After 7 days of implant of U937 cells, mice were treated daily with Vehicle (control), or Tamibarotene (15 mg/Kg, positive control), or Formula III (K145) (15 mg/Kg) by i.p. administration. Tumor size was measured every other day."}, "S1P": {"tested_on": "S1P", "experiment": "Cellular S1P level in U937 cells by ESI-MS/MS", "assay_type": "cell-based, human", "settings": "10 μM, 3 h", "protocol": "as §1\n(§2) Next we examined whether K145 affects cellular levels of S1P. […] Therefore, we further characterized K145 in U937 cells. […] This might be due to the fact that many enzymes such as SphK1, SphK2, S1P lyase, and S1P phosphatise, not just SphK2, are involved in the regulation of cellular S1P. […] To further confirm its SphK2 selectivity, we then tested the effects of K145 on the phosphorylation of FTY720, a SphK2 specific substrate."}, "SphK1": {"molecular_target": "SphK1 (Homo sapiens, UniProt Q9NYA1)", "sequence (Q9NYA1 whole entry, species assumed)": "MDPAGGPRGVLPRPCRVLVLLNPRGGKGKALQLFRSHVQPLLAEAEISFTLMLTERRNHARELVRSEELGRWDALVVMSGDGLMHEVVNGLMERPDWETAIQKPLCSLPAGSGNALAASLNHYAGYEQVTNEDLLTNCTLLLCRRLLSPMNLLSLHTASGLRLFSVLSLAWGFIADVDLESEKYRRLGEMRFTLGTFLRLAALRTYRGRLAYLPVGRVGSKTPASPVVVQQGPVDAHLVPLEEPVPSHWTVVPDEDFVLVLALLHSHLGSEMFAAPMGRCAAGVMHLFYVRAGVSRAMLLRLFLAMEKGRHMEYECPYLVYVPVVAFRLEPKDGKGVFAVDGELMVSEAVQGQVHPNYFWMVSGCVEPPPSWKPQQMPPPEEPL", "experiment": "SphK1 activity assay", "assay_type": "biochemical", "settings": "relative activity vs no inhibitor; compounds at 10 μM (FIGS. 1, 4, 6)", "protocol": "A) SphK1 and SphK2 activities were measured with 5 μM sphingosine in the absence or presence of the indicated concentrations of K145 or 10 μM DMS. Data are expressed as percentage SphK activity in the absence of inhibitor; B) Effect of K145 (10 μM) on activity of the indicated enzymes was tested by SelectScreen Kinase Profiling from Invitrogen. CaMK11β, Ca2+/calmodulin-dependent protein kinase II; CDK2, cyclin-dependent kinase 2; EGFR, Epidermal Growth Factor Receptor; Fyn, Fyn Kinase (p55); ERK2, extracellular signal-regulated kinase 2; ERK1, extracellular signal-regulated kinase 1; PKA, protein kinase A; PKCα, protein kinase C α; P13K, phosphatidylinositide 3-kinase. Data are expressed as percentage of control activity averaged from 2 independent experiments.\nFIG. 3. SphK2 was incubated with indicated compounds at 10 μM, then the activity of SphK2 was determined. The data shown here is a relative activity of SphK2 compared to control (no inhibitor, column labeled Sph in the Figure). 96047 is a known SpK2 inhibitor. A5, B26, K25 and QLA13 are known compounds [Li et al. (2009) Bioorg Med Chem Lett 19: 6042-6046; Liu et al. (2012) Eur J Med Chem 47: 125-137] and were tested for purposes of comparison. “A” and “B” refer to different batches of a compound. FIG. 4. SphK1 was incubated with indicated compounds at 10 μM, then the activity of SphK1 was determined. The data shown here is a relative activity of SphK1 compared to control (no inhibitor, column labeled Sph in the Figure). 96091 is a known Spk1 inhibitor. A5, B26, K25 and QLA13 are as above for […]. “A” and “B” refer to different batches of a compound.\nFIG. 6. SphK1 was incubated with indicated compounds at 10 μM, then the activity of SphK2 was determined. The data shown here is a relative activity of SphK2 compared to control (no inhibitor)."}, "[3]": {"tested_on": "ceramide-1-phosphate (C1P)", "experiment": "C1P species in U937 cells by ESI-MS/MS", "assay_type": "cell-based, human", "settings": "10 μM, 3 h", "protocol": "as §1, §2"}, "JC xenograft": {"tested_on": "JC xenograft", "experiment": "JC xenografts in syngenic BALB/c mice, i.p.", "assay_type": "in vivo", "protocol": "FIG. 14A-E. K145 suppresses the growth of JC xenograft in BALB/c mice. BALB/c mice (n=8) with palpable JC xenograft were treated daily with vehicle or K145 (20 mg/kg and 35 mg/kg) for 15 days by i.p. injection.\nFemale BALB/c mice (n=12) were injected with 1×10^6 JC cells subcutaneously in the flank, and treatment with the compound produced as described in Example 15 i.e. 3-(2-aminoethyl)-5-[3-(4-butoxyphenyl)-propylidene]-thiazolidine-2,4-dione (Formula III-K145, 20 mg/kg and 35 mg/Kg dosage daily (i.p.) was started seven days after the tumor cell injection and stopped at day […]. Mice were sacrificed at 15 days treatment."}}, "data": [{"smiles": "CCCCOc1ccc(CC/C=C2\\SC(=O)N(CCN)C2=O)cc1", "note": "[K145, 3-(2-aminoethyl)-5-[3-(4-butoxyl-phenyl)-propylidene]-thiazolidine-2,4-dione]", "values": [{"measurement": "oral availability", "setting": "U937 xenograft [1]; 50 mg/kg oral gavage", "value": "orally available"}, {"measurement": "toxicity", "setting": "U937 xenograft [1]; 50 mg/kg oral, 15 days", "value": "no apparent toxicity was observed"}, {"measurement": "body weights", "setting": "U937 xenograft [1]; 50 mg/kg oral, beginning of the treatment, recovered later", "value": "slight decrease of body weights"}, {"measurement": "TGI (tumor growth inhibition)", "setting": "U937 xenograft [1]; oral gavage daily 15 days, K145 50 mg/kg, tamibarotene 20 mg/kg", "value": 51.25, "unit": "%"}, {"measurement": "ceramide levels", "setting": "ceramide", "value": "without significant effects"}, {"measurement": "induction of apoptosis in U937 cells", "setting": "U937 cells; 5 μM, after 18 hrs", "value": "significantly induced apoptosis"}, {"measurement": "induction of apoptosis in U937 cells", "setting": "U937 cells; 10 μM, 4 hrs treatment", "value": "significantly induced apoptosis"}, {"measurement": "induction of apoptosis in U937 cells", "setting": "U937 cells; varying concentrations and intervals", "value": "significantly and dose-dependently induced apoptosis"}, {"measurement": "TGI (tumor growth inhibition)", "setting": "U937 xenograft [2]; 17 days", "value": 44.2, "unit": "%"}, {"measurement": "body weights of mice", "setting": "U937 xenograft [2]; compared with vehicle", "value": "remained the same"}, {"measurement": "total cellular S1P", "setting": "S1P", "value": "caused a decrease"}, {"measurement": "inhibition of SphK1 activity (in words)", "setting": "SphK1", "value": "not SphK1"}, {"measurement": "level of ceramide-1-phosphate (C1P)", "setting": "[3]", "value": "not significantly affected"}, {"measurement": "S1P level in JC tumor samples", "setting": "JC xenograft; 20 mg/kg group vs vehicle, ESI-MS/MS", "value": "suppressed"}, {"measurement": "K145 level in JC tumor samples", "setting": "JC xenograft; 20 mg/kg group, ESI-MS/MS", "value": "detected"}, {"measurement": "p-ERK and p-Akt levels in tumor samples", "setting": "JC xenograft; 20 mg/kg vs vehicle, Western blot", "value": "decreased"}, {"measurement": "changes in body weights and major organs (heart, lung, liver, kidney)", "setting": "JC xenograft; 20 and 35 mg/kg i.p., 15 days", "value": "did not observe significant changes"}, {"measurement": "tumor weights vs vehicle-treated mice", "setting": "JC xenograft; 20 and 35 mg/kg i.p., 15 days", "value": "significantly less"}, {"measurement": "mean volume of JC tumors smaller than in vehicle-treated mice", "setting": "JC xenograft; both doses (20 and 35 mg/kg daily i.p.), after 15 days", "value": "> 50", "unit": "%"}]}]}
